# Assay results taken from patent US12144886B2, “Perineural administration of resiniferatoxin for treatment of maladaptive pain” (Sorrento Therapeutics, Inc., priority 2018, dated 2024).
# How the values were obtained:
# [1] = system: declawed cats with chronic distal thoracic limb pain; test: Adverse events in open-label multicenter trial of perineural RTX in declawed cats; type: in vivo, cat; conditions: for Animals with self-limiting reactions related to the treatment: during recovery from anesthesia
# Description: Cats suffering from severe bilateral chronic pain (more than 90 days) as a result of severe complications after onychectomy were enrolled in this study (an exploratory, open-label, multicenter clinical trial). Thirteen (13) cases were treated for initial pain and reduced quality of life (QoL). Then, bilateral perineural distal limb injections (ring block technique) were administered under general anesthesia (a combination of diphenhydramine, buprenorphine, dexmedetomidine, ketamine, and isoflurane). Following a published technique (Enomoto et al., 2016) for the nerve block of the manus of the cat, the total dose of RTX was equally distributed adjacent to the 1) superficial branch of the radial nerve, 2) dorsal branch of the ulnar nerve, 3) median nerve and superficial branch of the palmar branch of the ulnar nerve, and 4) deep branch of palmar branch of the ulnar nerve. A total of 2.5 ug (1.25 ug/1 mL per forelimb in Group 1, n=7) and 5 ug (2.5 ug/1 mL per forelimb in Group 2, n=6) of RTX was injected as a one-time treatment. Group 2 included the cat for which detailed results are provided in Example B above. Monitoring of QoL and pain for the following 28 days was accomplished using the Client-Specific Outcome Measures feline (CSOMf), the Feline Musculoskeletal Pain Index (FMPI), two post-injection physical examinations, and videography on days 3, 7, 14, and 28 post injections.
# [2] = system: declawed cat with maladaptive pain; test: Physical exam and behavioral findings in a declawed cat after perineural RTX; type: in vivo; conditions: one cat
# Description: (§1) Tolerance, safety, and analgesic effects of RTX administration were evaluated in a single declawed cat with maladaptive pain. […] The cat also presented a self-limiting decreased appetite for 12 hours post injection.
# A summary of the pre- and post-RTX injection physical exam results relevant to pain related to the declawed digits are presented in Table 4.
# Additionally, the cat had shown elimination behavior issues, aggressivity when manipulated, and diminished attention seeking before treatment. Each of these behavioral issues related to the chronic maladaptive pain state reversed following the perineural administration of RTX, even though the cat was believed to have been in pain for years prior to this treatment.
# [3] = system: declawed cat with maladaptive pain; test: Client Specific Outcome Measure (CSOM) in a declawed cat after perineural RTX nerve blocks; type: in vivo; set-up: key to CSOM Total score / CSOM Q1 Extending distal limb; “kneading”; stretching / CSOM Q2 Running / CSOM Q3 Jumping down from bed and window: 1 = no problem; 2 = mild difficulty; 3 = moderate; 4 = severe difficulty; 5 = impossible; conditions: one cat; for CSOM Q1 Extending distal limb; “kneading”; stretching / CSOM Q2 Running / CSOM Q3 Jumping down from bed and window / CSOM Total score: 2.5 μg/forelimb perineural
# Description: Each dose of 5 μg/cat or 2.5 μg/forelimb will be formulated in 1 cc insulin syringes by diluting 0.1 mL: (2.5 μg) of RTX in 0.9 mL sterile saline for injection immediately before use. For treatment, a total of 1.0 mL (2.5 μg) will be injected as nerve blocks, distributed equally (0.25 ml per injection site) over 4 injection sites for each forelimb.
# Four point nerve blocks are performed by injection of 0.25 mL RTX each into the 1) superficial branches of the radial nerve, 2) dorsal branch of the ulnar nerve, 3) median nerve and superficial branch of the palmar branch of the ulnar nerve, and 4) deep branch of the palmar branch of the ulnar nerve. The nerve blocks for each forelimb are performed following a published technique for locoregional block of the manus in cats (Enomoto et al. (2016) J. Feline Med. Surg. 18:838-845). To block the superficial branches of the radial nerve (RSbr nn), the limb is positioned with the dorsal aspect facing upwards and the carpus in 180° of extension. A 25 G×⅝-inch needle is inserted subcutaneously (SC) from a point at the center of the limb at the level of the antebrachiocarpal joint. The needle is advanced approximately 10 mm SC at a 10-20° angle to the long axis of the limb with the bevel facing up. Once the tip of the needle is 3-5 mm from the confluence point of the accessory cephalic and cephalic veins, the injection is made (0.25 mL). To block the dorsal branch of the ulnar nerve (UDbr n), the limb is positioned with the lateral aspect facing upwards. A point is located lateral to and at the same level as the accessory carpal bone (ACb), positioned between the ACb and the styloid process of the ulna (SpU). A 25 G×⅝-inch needle is inserted SC distal to proximal, so the tip lies at the midpoint of the groove formed between ACb and the SpU, and then the injection is made (0.25 mL). To block the median nerve (M n) and superficial branch of the palmar branch of the ulnar nerve (UPbrS n), the limb is positioned with the palmar aspect facing upwards. A 25 G×⅝-inch needle is inserted SC at the distal border of the carpal pad and approximately 5 mm lateral to it, perpendicular to the long axis of the metacarpus, with the bevel facing up. The needle is inserted SC until the point is located two-thirds of the distance from the lateral aspect of the limb to the medial aspect. Two-thirds of the injectate volume is deposited at this point and the remaining volume is injected while the needle is withdrawn (0.25 mL). Gentle massage is applied to the injected volume under the skin for 5 seconds. To block the deep branch of the palmar branch of the ulnar nerve (UPbrDp n), the limb is positioned with the palmar aspect facing upwards. A 25 G×⅝-inch needle is inserted almost perpendicular to the ACb in a mediolateral direction such that the needle contacts the medial palmar aspect of the midpoint of the ACb with the bevel facing up. The needle is then redirected dorsally and advanced on the medial side of the ACb 2-3 mm until it penetrates the flexor retinaculum, and then the injection is made (0.25 mL).
# The effectiveness of the injection with RTX is assessed at days 3, 7, and 14 using owner videography for qualitative assessment (jumping, manipulation of the limb), and cats will also be evaluated using the Feline Musculoskeletal Pain Index (FMPI) and the Client Specific Outcome Measure (CSOM).
# For CSOM, owners are asked to score three attributes (Q1) Extending distal limb, “kneading”; stretching, (Q2) Running; and (Q3) Jumping down from bed and window using a scale of 1-5 where 1=no problem, 2=mild difficulty, 3=moderate, 4=severe difficulty, and 5=impossible.
# as §1
smiles,measurement,setting,value
"C=C(C)[C@]12C[C@@H](C)[C@@]34O[C@](Cc5ccccc5)(O[C@@H]1[C@@H]3C=C(COC(=O)Cc1ccc(O)c(OC)c1)C[C@]1(O)C(=O)C(C)=C[C@@H]41)O2 [RTX, resiniferatoxin]",Tolerability of perineural RTX at the described doses,[1]; 2.5 ug and 5 ug total per cat,well tolerated
same,Adverse event: hypersalivation,[1]; Group 1 (2.5 ug total),71.4%
same,Adverse event: panting,[1]; Group 1 (2.5 ug total),57.1%
same,Adverse event: vocalization,[1]; Group 1 (2.5 ug total),57.1%
same,AEs presented and resolved the same day of administration,"[1]; Group 1 (2.5 ug total), 26/30",86.6%
same,Animals with self-limiting reactions related to the treatment,"[1]; Group 1 (2.5 ug total, 1.25 ug per forelimb, n=7)",71.4%
same,Adverse event: hypersalivation,[1]; Group 2 (5 ug total),50%
same,Adverse event: panting,[1]; Group 2 (5 ug total),83.3%
same,Adverse event: vocalization,[1]; Group 2 (5 ug total),83.3%
same,AEs presented and resolved the same day of administration,"[1]; Group 2 (5 ug total), 21/22",95.4%
same,Animals with self-limiting reactions related to the treatment,"[1]; Group 2 (5 ug total, 2.5 ug per forelimb, n=6)",100%
same,AEs presented and resolved the same day of administration,[1]; both groups,more than 85%
same,Time to resolution of most common adverse events after treatment,[1]; both groups,≤ 4 h
same,"Behavioral issues (elimination behavior issues, aggressivity when manipulated, diminished attention seeking)",[2]; following perineural administration,reversed
same,Overall conclusion from CSOM and FMPI scores,[2]; 2.5 μg/forelimb perineural,safe and effective
same,Persistence of effects,[2]; 2.5 μg/forelimb perineural,at least 14 days
same,CSOM Q1 Extending distal limb; “kneading”; stretching,[3]; Day 0 (baseline),3
same,CSOM Q2 Running,[3]; Day 0 (baseline),3
same,CSOM Q3 Jumping down from bed and window,[3]; Day 0 (baseline),2
same,CSOM Total score,[3]; Day 0 (baseline),8
same,CSOM Q1 Extending distal limb; “kneading”; stretching,[3]; Day 3,2
same,CSOM Q2 Running,[3]; Day 3,3
same,CSOM Q3 Jumping down from bed and window,[3]; Day 3,2
same,CSOM Total score,[3]; Day 3,7
same,CSOM Q1 Extending distal limb; “kneading”; stretching,[3]; Day 7,1
same,CSOM Q2 Running,[3]; Day 7,2
same,CSOM Q3 Jumping down from bed and window,[3]; Day 7,2
same,CSOM Total score,[3]; Day 7,5
same,CSOM Q1 Extending distal limb; “kneading”; stretching,[3]; Day 14,2
same,CSOM Q2 Running,[3]; Day 14,2
same,CSOM Q3 Jumping down from bed and window,[3]; Day 14,2
same,CSOM Total score,[3]; Day 14,6
same,CSOM Q1 Extending distal limb; “kneading”; stretching,[3]; Screening (baseline),3
same,CSOM Q2 Running,[3]; Screening (baseline),3
same,CSOM Q3 Jumping down from bed and window,[3]; Screening (baseline),2
same,CSOM Total score,[3]; Screening (baseline),8
same,"CSOM: extending distal limb, kneading, stretching and running",[3]; after injection,showed improvement
